Measured values published in US12391679B2, “Benzamide-substituted bicyclic imidazo- and pyrazolo-fused -pyridine, -pyrimide, and -pyridazine compounds for treatment of inflammatory diseases” (ONCO3R Therapeutics BV, priority 2019, dated 2025).

Assays:
SIK1 = biological target: T1, SIK1 (Homo sapiens, UniProt P57059); test: ADP-Glo kinase assay, SIK1; format: biochemical
T1 construct: purchased Carna Biosciences 02-131
How it was run: (§1)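 Steps: add enzyme–substrate mixture; start with diluted ATP; incubate RT 120 min; add ADP-Glo Reagent to terminate and remove unconsumed ATP, 40 min; add detection reagent, 30 min; read luminescence. DMSO at 1% and staurosporine at 10 μM (final) define assay windows.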

[1] = tested on: LPS-induced TNFα in monocyte-derived macrophages; test: MdM assay: LPS-triggered TNFα (ELISA); format: cell-based, human; conditions: Macrophage; human MdM; LPS 200 ng/mL; supernatant after 20 h; inhibition of TNFα; read-out: TNFα EC50
Method: This assay evaluates illustrative compounds of the invention for their inhibition of LPS-induced TNFα and LPS triggered IL-10 secretion in monocyte-derived macrophages. PBMCs are isolated from human blood samples (buffycoats). The buffy coat is aseptically transferred into a 50 mL Falcon tube, and diluted 1/2 in PBS. Falcon tubes are filled with 20 mL LymphoprepTM, on top of which 25 mL of the buffy coat is carefully added, tubes are centrifuged for 35 min at 400 g in temperature controlled centrifuge, without brake, at 25° C. PBMCs are aspirated from the white interface layer between sample and LymphoprepTM. PBMCs are washed five times in PBS. […] PBMCs are centrifuged at 300×g for 10 min and resuspended at a density of 1.0*10^7 cells/80 μL Miltenyi buffer (PBS, pH 7.4, 1% FBS, 2 mM EDTA). Starting from this point of the protocol all steps are performed on ice. 20 μL of CD14+ micro-beads are added per 1.0*10^7 cells, the tube is mixed and incubated for 15 min in the fridge at 4° C. Cell suspension volume is adjusted to total volume of 100 mL using Miltenyi buffer, mixed gently and subsequently centrifuged for 10 min at 300×g. Supernatant is discarded and cell pellet is resuspended in 12 mL of Miltenyi buffer. Four LS columns are placed in the MACS Separator (magnet) from Miltenyi Biotec, and are prewet by rinsing with 3 mL of MACS buffer per column. Three mL of cell suspension is added onto the column (max 1*10^8 of labelled cells/column), and columns are subsequently washed 3 times with 3 mL of Miltenyi buffer. The columns are removed from the magnets, and 5 mL of Miltenyi buffer are added to the column to flush out the CD14+ fraction by pushing the plunger into the column. The flushed fractions are collected in a fresh 50 mL Falcon and volume is adjusted to 30 mL using Miltenyi buffer, cells are centrifuged for 10 min at 300×g. The obtained cell pellet is resuspended in 10 mL RPMI w/o FBS, and cell density is determined using a hematologic analyser (Sysmex XS-500i). […] On day 10, MdMs are triggered and compound is added. A compound dilution plate is made in 100% DMSO by 3-fold dilution of 10 mM stock solution. An intermediate dilution plate (10× final concentration) is made by diluting the compound dilution plate […] in RPMI medium. Medium is carefully removed from cell plates using multichannel pipette, and replaced by 80 μL fresh medium. 10 μL of the 10× final concentration compound is added to the cells and incubated for 1 hour at 37° C. before addition of trigger. No trigger conditions/trigger conditions are spiked with equal final DMSO concentrations of 0.2% DMSO. 10 μL of 10×LPS (final conc. 200 ng/mL) solution are added to all wells except for the 'no trigger wells' where 10 μL medium is added. Supernatant is collected after 2 h (IL-10 determination) and after 20 h (TNFα determination) of LPS triggering. […] The plate is then washed once with PBST (PBS+0.05% Tween20) and once with PBS followed by the addition of 100 μL of blocking buffer (1% Bovine Serum Albumin (BSA) -5% Sucrose) and plates are sealed and incubated for at least 4 h at RT. After washing the plate once with PBST and once with PBS, 40 μL of standard or sample are added (TNFα standard curve is prepared using a 1/2 serial dilution starting from 16000 pg/mL; dilutions are made in dilution buffer (PBS+1% BSA)). Plates are washed twice with PBST, and once with PBS, after which 35 μL of the detection antibody is added (final concentration 0.25 μg/mL diluted in dilution buffer) and plates are incubated for at least 2 h at RT. Plates are washed twice with PBST, and once with PBS, where after 35 μL of Strep-HRP conjugate (0.5 μg/mL final concentration diluted in dilution buffer) is added. […] Plates are washed twice with PBST, and once with PBS. Thereafter, 50 μL of luminol substrate is added to each well (prepared according to manufacturer's instructions), and incubated for 5 min at RT protected from light.

SIK2 = biological target: T2, SIK2 (Homo sapiens, UniProt Q9H0K1); test: ADP-Glo kinase assay, SIK2; format: biochemical
T2 construct: purchased ThermoFisher Scientific PV4792
How it was run: as §1

SIK3 = biological target: T3, SIK3 (Homo sapiens, UniProt Q9Y2K2); test: ADP-Glo kinase assay, SIK3; format: biochemical
T3 construct: purchased SignalChem S12-11G-100
How it was run: as §1

[2] = tested on: LPS-induced TNFα in monocytes; test: Monocytes assay: LPS-triggered TNFα (ELISA); format: cell-based, human; conditions: Homo sapiens, Monocyte, LPS-triggered TNFα inhibition
Method: This assay evaluates illustrative compounds of the invention for their inhibition of LPS-induced TNFα and LPS triggered IL-10 secretion in monocytes.
PBMCs are isolated from human blood samples (buffycoats). The buffy coat is aseptically transferred into a 50 mL Falcon tube, and diluted 1/2 in PBS. Falcon tubes are filled with 20 mL Lymphoprep™, on top of which 25 mL of the buffy coat is carefully added, tubes are centrifuged for 35 min at 400 g in temperature controlled centrifuge, without brake, at 25° C. PBMCs are aspirated from the white interface layer between sample and Lymphoprep™. PBMCs are washed five times in PBS.
PBMCs are centrifuged at 300×g for 10 min and resuspended at a density of 1.0*10^7 cells/80 μL Miltenyi buffer (PBS, pH 7.4, 1% FBS, 2 mM EDTA).
Starting from this point of the protocol all steps are performed on ice. 20 μL of CD14+ micro-beads are added per 1.0*10^7 cells, the tube is mixed and incubated for 15 min in the fridge at 4° C. Cell suspension volume is adjusted to total volume of 100 mL using Miltenyi buffer, mixed gently and subsequently centrifuged for 10 min at 300×g. Supernatant is discarded and cell pellet is resuspended in 12 mL of Miltenyi buffer.
Four LS columns are placed in the MACS Separator (magnet) from Miltenyi Biotec, and are prewet by rinsing with 3 mL of MACS buffer per column. Three mL of cell suspension is added onto the column (max 1*10^8 of labelled cells/column), and columns are subsequently washed 3 times with 3 mL of Miltenyi buffer.
The columns are removed from the magnets, and 5 mL of Miltenyi buffer are added to the column to flush out the CD14+ fraction by pushing the plunger into the column. The flushed fractions are collected in a fresh 50 mL Falcon and volume is adjusted to 30 mL using Miltenyi buffer, cells are centrifuged for 10 min at 300×g. The obtained cell pellet is resuspended in 10 mL RPMI w/o FBS, and cell density is determined using a hematologic analyser (Sysmex XS-500i).
A compound dilution plate is made in 100% DMSO by 3-fold dilution of 10 mM stock solution. An intermediate dilution plate (10× final concentration) is made by diluting the compound dilution plate 50-fold in RPMI medium.
10 μL of the 10× final concentration compound is added to the cells and incubated for 1 h at 37° C. before addition of trigger. No trigger conditions/trigger conditions are spiked with equal final DMSO concentrations of 0.2% DMSO. 10 μL of 10×LPS (final conc. 200 ng/mL) solution are added to all wells except for the ‘no trigger wells’ where 10 μL medium is added. Supernatant is collected after 4 h of LPS triggering.
The plate is then washed once with PBST (PBS+0.05% Tween20) and once with PBS followed by the addition of 100 μL of blocking buffer (1% Bovine Serum Albumin (BSA)-5% Sucrose) and plates are sealed and incubated for at least 4 h at RT. After washing the plate once with PBST and once with PBS, […]. Plates are washed twice with PBST, and once with PBS, after which 35 μL of the detection antibody is added (final concentration 0.25 μg/mL diluted in dilution buffer) and plates are incubated for at least 2 h at RT. Plates are washed twice with PBST, and once with PBS, whereafter 35 μL of Strep-HRP conjugate (0.5 μg/mL final concentration diluted in dilution buffer) is added. Plates are incubated in the dark, at RT for at least 45 min but no longer than 1 h. Plates are washed twice with PBST, and once with PBS. Thereafter, 50 μL of luminol substrate is added to each well (prepared according to manufacturer's instructions), and incubated for 5 min at RT protected from light.
To measure the inhibition of LPS induced TNFα, percentage inhibition (PIN) values are calculated for all concentrations tested, compared to controls.

T1 sequence (P57059 whole entry): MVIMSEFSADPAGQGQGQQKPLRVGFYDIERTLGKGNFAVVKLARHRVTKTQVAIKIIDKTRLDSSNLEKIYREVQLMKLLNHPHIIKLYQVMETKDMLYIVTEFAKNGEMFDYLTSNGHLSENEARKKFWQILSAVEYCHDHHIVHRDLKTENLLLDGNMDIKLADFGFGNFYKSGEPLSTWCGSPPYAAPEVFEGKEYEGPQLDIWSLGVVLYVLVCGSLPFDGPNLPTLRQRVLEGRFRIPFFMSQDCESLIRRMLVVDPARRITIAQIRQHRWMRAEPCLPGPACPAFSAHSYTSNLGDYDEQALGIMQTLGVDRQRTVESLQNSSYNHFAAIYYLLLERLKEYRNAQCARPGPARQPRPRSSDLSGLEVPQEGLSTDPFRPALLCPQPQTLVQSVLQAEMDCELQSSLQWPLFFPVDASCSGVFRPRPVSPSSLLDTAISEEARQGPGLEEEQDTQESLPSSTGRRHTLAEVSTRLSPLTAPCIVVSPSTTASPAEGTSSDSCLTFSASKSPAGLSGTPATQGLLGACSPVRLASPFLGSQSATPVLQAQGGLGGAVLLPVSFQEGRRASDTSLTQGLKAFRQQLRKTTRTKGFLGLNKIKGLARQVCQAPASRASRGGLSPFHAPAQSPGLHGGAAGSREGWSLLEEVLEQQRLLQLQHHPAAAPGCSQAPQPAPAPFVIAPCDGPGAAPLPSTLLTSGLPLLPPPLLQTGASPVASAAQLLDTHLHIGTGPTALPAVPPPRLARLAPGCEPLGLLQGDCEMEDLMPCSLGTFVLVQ
T3 sequence (Q9Y2K2 59-365 limits assumed): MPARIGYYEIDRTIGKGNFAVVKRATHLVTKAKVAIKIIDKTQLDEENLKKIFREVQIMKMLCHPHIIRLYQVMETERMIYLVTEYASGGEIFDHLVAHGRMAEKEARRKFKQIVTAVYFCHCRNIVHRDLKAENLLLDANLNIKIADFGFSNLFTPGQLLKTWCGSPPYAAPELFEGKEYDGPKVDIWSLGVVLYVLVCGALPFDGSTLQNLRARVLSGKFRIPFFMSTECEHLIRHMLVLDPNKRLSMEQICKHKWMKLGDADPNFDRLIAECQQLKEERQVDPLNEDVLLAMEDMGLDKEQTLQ
T2 sequence (Q9H0K1 whole entry): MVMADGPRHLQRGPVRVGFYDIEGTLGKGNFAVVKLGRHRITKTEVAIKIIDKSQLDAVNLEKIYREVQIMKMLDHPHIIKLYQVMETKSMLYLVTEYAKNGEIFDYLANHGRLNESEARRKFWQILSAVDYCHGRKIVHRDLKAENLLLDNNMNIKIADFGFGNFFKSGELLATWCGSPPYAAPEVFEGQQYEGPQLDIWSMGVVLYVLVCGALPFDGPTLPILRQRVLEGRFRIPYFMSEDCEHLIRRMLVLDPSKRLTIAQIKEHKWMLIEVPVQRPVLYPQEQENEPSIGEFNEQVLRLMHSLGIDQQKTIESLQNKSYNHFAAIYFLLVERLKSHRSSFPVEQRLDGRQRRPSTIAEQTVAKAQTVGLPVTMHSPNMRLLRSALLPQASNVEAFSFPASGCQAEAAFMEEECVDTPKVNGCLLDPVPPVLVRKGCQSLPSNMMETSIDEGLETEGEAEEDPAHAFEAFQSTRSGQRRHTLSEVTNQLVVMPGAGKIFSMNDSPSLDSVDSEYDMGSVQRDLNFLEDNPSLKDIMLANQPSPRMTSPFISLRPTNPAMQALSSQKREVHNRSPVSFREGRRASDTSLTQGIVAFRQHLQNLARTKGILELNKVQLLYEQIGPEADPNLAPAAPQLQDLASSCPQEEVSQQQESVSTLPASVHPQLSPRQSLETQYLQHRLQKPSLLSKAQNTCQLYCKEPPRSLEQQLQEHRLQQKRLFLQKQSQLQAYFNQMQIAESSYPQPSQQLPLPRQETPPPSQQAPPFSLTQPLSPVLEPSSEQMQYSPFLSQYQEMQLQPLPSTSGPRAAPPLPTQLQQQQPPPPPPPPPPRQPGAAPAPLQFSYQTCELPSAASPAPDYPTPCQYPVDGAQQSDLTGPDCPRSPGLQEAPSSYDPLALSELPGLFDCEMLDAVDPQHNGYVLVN

| SMILES | IC50 (SIK1) | EC50 [1] | IC50 (SIK2) | IC50 (SIK3) | EC50 [2] |
| --- | --- | --- | --- | --- | --- |
| COc1cc(-c2cnc3cc(C4(C#N)CCCC4)ccn23)cc(OC(F)F)c1C(=O)NC1CC1 [Cpd 53, 4-[7-(1-cyanocyclopentyl)imidazo[1,2-a]pyridin-3-yl]-N-cyclopropyl-2-(difluoromethoxy)-6-methoxy-benzamide] | > 500 nM | 100 to 1000 nM | > 500 nM | 0.01 to 10 nM | – |
| COc1cc(-c2cnc3cc(C4CCCN(C)C4)ccn23)cc(OC(F)F)c1C(=O)NC1CC1 (stereo not shown) [Cpd 67, N-cyclopropyl-2-(difluoromethoxy)-6-methoxy-4-[7-(1-methyl-3-piperidyl)imidazo[1,2-a]pyridin-3-yl]benzamide] | > 500 nM | 100 to 1000 nM | 10 to 100 nM | 0.01 to 10 nM | – |
| COc1cc(-c2cnc3cc(C4CCN(C)CC4)ccn23)cc(OC(F)F)c1C(=O)NC1CC1 [Cpd 68, N-cyclopropyl-2-(difluoromethoxy)-6-methoxy-4-[7-(1-methyl-4-piperidyl)imidazo[1,2-a]pyridin-3-yl]benzamide] | > 500 nM | 1000 to 5000 nM | 10 to 100 nM | 0.01 to 10 nM | – |
| COc1cc(-c2cnn3cc(C(C)(C)OCCN4CCOCC4)ccc23)cc(OC(F)F)c1C(=O)N[C@@H]1C[C@@H]1F [Cpd 255, 2-(difluoromethoxy)-N-[(1R,2S)-2-fluorocyclopropyl]-6-methoxy-4-[6-[1-methyl-1-(2-morpholinoethoxy)ethyl]pyrazolo[1,5-a]pyridin-3-yl]benzamide] | > 500 nM | – | > 500 nM | 10 to 100 nM | 100 to 1000 nM |

Continued, values first:

| IC50 (SIK1) | EC50 [1] | IC50 (SIK2) | IC50 (SIK3) | EC50 [2] | SMILES |
| --- | --- | --- | --- | --- | --- |
| > 500 nM | – | > 500 nM | 0.01 to 10 nM | 100 to 1000 nM | CNC(=O)COCC(C)(C)c1ccc2c(-c3cc(OC)c(C(=O)N[C@@H]4C[C@@H]4F)c(OC(F)F)c3)cnn2c1 [Cpd 253, 2-(difluoromethoxy)-4-[6-[1,1-dimethyl-2-[2-(methylamino)-2-oxo-ethoxy]ethyl]pyrazolo[1,5-a]pyridin-3-yl]-N-[(1R,2S)-2-fluorocyclopropyl]-6-methoxy-benzamide] |
| > 500 nM | – | > 500 nM | 0.01 to 10 nM | 100 to 1000 nM | COc1cc(-c2cnn3cc(C(C)(C)COCC4COC4)ccc23)cc(OC(F)F)c1C(=O)N[C@@H]1C[C@@H]1F [Cpd 262, 2-(difluoromethoxy)-4-[6-[1,1-dimethyl-2-(oxetan-3-ylmethoxy)ethyl]pyrazolo[1,5-a]pyridin-3-yl]-N-[(1R,2S)-2-fluorocyclopropyl]-6-methoxy-benzamide] |
| > 500 nM | – | > 500 nM | 10 to 100 nM | 100 to 1000 nM | COc1cc(-c2cnn3cc(C(C)(C)COC4COC4)ccc23)cc(OC(F)F)c1C(=O)N[C@@H]1C[C@@H]1F [Cpd 265, 2-(difluoromethoxy)-4-[6-[1,1-dimethyl-2-(oxetan-3-yloxy)ethyl]pyrazolo[1,5-a]pyridin-3-yl]-N-[(1R,2S)-2-fluorocyclopropyl]-6-methoxy-benzamide] |
| > 500 nM | – | > 500 nM | 10 to 100 nM | 100 to 1000 nM | COc1cc(-c2cnn3cc(C(C)(C)NCCO)ccc23)cc(OC(F)F)c1C(=O)N[C@@H]1C[C@@H]1F [Cpd 268, 2-(difluoromethoxy)-N-[(1R,2S)-2-fluorocyclopropyl]-4-[6-[1-(2-hydroxyethylamino)-1-methyl-ethyl]pyrazolo[1,5-a]pyridin-3-yl]-6-methoxy-benzamide] |
| > 500 nM | – | > 500 nM | 10 to 100 nM | 100 to 1000 nM | COC(=O)NC1(c2ccc3c(-c4cc(OC)c(C(=O)N[C@@H]5C[C@@H]5F)c(OC(F)F)c4)cnn3c2)CCC1 [Cpd 272, methyl N-[1-[3-[3-(difluoromethoxy)-4-[[(1R,2S)-2-fluorocyclopropyl]carbamoyl]-5-methoxy-phenyl]pyrazolo[1,5-a]pyridin-6-yl]cyclobutyl]carbamate] |
| > 500 nM | – | > 500 nM | 10 to 100 nM | 100 to 1000 nM | CNC(=O)C1(c2ccc3c(-c4cc(OC)c(C(=O)N[C@@H]5C[C@@H]5F)c(OC(F)F)c4)cnn3c2)CCC1 [Cpd 273, 2-(difluoromethoxy)-N-[(1R,2S)-2-fluorocyclopropyl]-6-methoxy-4-[6-[1-(methylcarbamoyl)cyclobutyl]pyrazolo[1,5-a]pyridin-3-yl]benzamide] |
